Source: publication PMC10287566, “Signaling-specific inhibition of the CB1 receptor for cannabis use disorder: phase 1 and phase 2a randomized trials” (Nature Medicine, 2023)
Read-outs that look alike come from different tables or passages of the source.

Tests used:
healthy volunteers = type: in vivo, human; settings: MAD
Method: Participants were admitted to the research clinic at midday before dosing (day −1). In the SAD study, they remained in-house until day 8 for PK and PD samples and safety assessments. In the MAD study, participants remained in-house until day 14 and returned to the research facility on an outpatient basis to have PK and safety assessments at 216 h and 264 h (day 16 and day 18) after their last dose (day 7). Safety monitoring (physical examinations, vital sign measurements, 12-lead ECGs, clinical safety laboratory tests and AE monitoring) were performed throughout the studies. Psychometrics tests (Bond & Lader VAS, Addiction Research Center Inventory (49-item short form) (ARCI-49) and Profile of Mood States 65 self-report items (POMS-65)) and the Columbia-Suicide Severity Rating Scale (C-SSRS) test were performed at baseline, before dose and at 4 h and 24 h after dose on day 1 and day 7 (MAD study, only) and C-SSRS only at 24 h.

volunteers with CUD [1] = assay: Phase 2a study, safety; type: in vivo, human
Text: Data from the first dose level were reviewed by the Data Safety Monitoring Board before ascending to the next dose level.
On day 6 of each period, before discharge from the research center, participants had sitting blood pressure and pulse rate measurements, clinical laboratory tests (chemistry, hematology and urinalysis) and body weight taken. The study start date was 23 October 2018; primary completion date was 31 July 2020; and actual study completion date was 1 January 2021. After the second study phase, participants were contacted 28 d after discharge so that we could inquire about the occurrence of any serious AEs (including pregnancies) that may have occurred since leaving the research site.

volunteers with CUD [2] = assay: Phase 2a study, plasma steroids, endocannabinoids, THC and metabolites; type: in vivo, human
Method: THC and its metabolites (11-OH-THC and 11-COOH-THC) were assessed at the same timepoints. […] THC and its metabolites analyses were performed using PD dataset (n = 13 for both doses).
PK parameters for AEF0117 were subject to descriptive statistics separately for each treatment group.
ALLO, DHEA, PREG and TESTO, as well as AEA and 2-AG, were measured. Data were analyzed using a global crossover MRMM analysis on the PD dataset (n = 13 per dose cohort).

rats [3] = assay: Irwin test and body temperature (GLP); type: in vivo; settings: rats, GLP
Method: The study involved four groups of six male Wistar rats weighing between 154.0 g and 185.9 g. […] On study day, animals were first scored by the Irwin standardized observation battery, and body temperature was measured. […] Irwin scores and measurement of body temperature were done again at 1, 3, 6, 8 and 24 h after dose.

[4] = molecular target: GR (glucocorticoid receptor) (Homo sapiens, UniProt P04150); assay: Eurofins binding screen; settings: read-out: Percent inhibition of control specific binding
GR (glucocorticoid receptor), sequence (P04150 whole entry): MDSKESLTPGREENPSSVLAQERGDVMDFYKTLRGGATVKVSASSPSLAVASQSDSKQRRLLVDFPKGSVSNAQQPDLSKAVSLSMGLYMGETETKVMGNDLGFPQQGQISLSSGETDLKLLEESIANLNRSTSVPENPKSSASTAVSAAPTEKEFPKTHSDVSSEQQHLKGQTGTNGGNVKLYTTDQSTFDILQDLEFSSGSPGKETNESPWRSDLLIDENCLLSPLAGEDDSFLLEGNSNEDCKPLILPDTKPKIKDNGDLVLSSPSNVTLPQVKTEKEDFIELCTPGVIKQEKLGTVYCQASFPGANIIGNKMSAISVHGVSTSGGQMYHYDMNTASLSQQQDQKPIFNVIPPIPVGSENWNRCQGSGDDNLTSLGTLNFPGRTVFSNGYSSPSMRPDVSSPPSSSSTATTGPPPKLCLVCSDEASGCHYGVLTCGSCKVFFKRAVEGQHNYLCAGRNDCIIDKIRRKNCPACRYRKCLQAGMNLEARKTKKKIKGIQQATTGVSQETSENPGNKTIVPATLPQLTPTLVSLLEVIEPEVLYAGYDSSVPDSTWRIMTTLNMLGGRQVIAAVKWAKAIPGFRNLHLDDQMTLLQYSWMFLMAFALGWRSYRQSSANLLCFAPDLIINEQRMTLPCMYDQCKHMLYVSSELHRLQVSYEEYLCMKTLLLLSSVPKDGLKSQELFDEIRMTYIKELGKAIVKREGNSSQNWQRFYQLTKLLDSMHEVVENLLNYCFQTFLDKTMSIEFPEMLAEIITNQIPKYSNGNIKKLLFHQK

mice [5] = assay: Glucocorticoid (corticosterone) secretion in mice; type: in vivo; settings: mice, highest dose tested 10 mg/kg
Method: Blood sampling was performed 2, 5, 8 and 24 h after dosing (n = 3 per sex per dose per sampling time). For blood sampling, mice were anaesthetized under isoflurane, and blood was collected by cardiac puncture. Blood was centrifuged, and plasma was taken and frozen at −80 °C until quantifications of corticosterone by GC–MS/MS.

rats [6] = assay: 91-d repeated oral toxicity study in rats (GLP); type: in vivo; settings: for change in blood urea level: male rats, week 14
[7] = 91-d repeated oral toxicity study in rats (GLP); type: in vivo; settings: both sexes, Sprague Dawley SPF, rat, in vivo, rats
mice [8] = assay: THC-induced catalepsy (bar test); type: in vivo
endogenous mouse CB1 = molecular target: T1, endogenous mouse CB1 (Mus musculus, UniProt P47746); assay: THC-induced p-ERK1/2 in STHdhQ7/Q7 cells; type: cell-based; settings: STHdhQ7/Q7, THC 10 µM; read-out: IC50, inhibition of THC-induced p-ERK1/2
T1 construct: a striatum-derived cell line that endogenously express murine CB1; host or cells: STHdhQ7/Q7
T1 sequence (P47746 whole entry): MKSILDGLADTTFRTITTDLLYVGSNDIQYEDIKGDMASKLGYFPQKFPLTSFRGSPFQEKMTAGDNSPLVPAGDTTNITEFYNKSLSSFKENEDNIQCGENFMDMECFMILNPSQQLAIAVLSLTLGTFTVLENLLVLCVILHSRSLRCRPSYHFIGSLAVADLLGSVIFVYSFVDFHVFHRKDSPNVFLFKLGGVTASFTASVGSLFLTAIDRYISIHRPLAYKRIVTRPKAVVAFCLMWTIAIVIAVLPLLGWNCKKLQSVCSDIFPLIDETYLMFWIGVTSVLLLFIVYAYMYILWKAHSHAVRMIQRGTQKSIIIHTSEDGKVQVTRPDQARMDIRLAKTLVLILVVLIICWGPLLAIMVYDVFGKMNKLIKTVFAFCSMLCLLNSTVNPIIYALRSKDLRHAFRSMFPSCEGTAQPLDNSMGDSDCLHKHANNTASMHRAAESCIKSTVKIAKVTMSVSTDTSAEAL

rats [9] = assay: THC-induced dopamine release in nucleus accumbens (microdialysis); type: in vivo; settings: 15 µg kg^−1 oral
[10] = MAD study, plasma pharmacokinetics; type: in vivo, human; settings: for Cmax / Tmax / half-life: human, plasma, oral; for Cmax: read-out: Cmax, mean (±SD); for Tmax: read-out: tmax, median (range)
Method: Samples were collected at the same timepoints on day 1 and day 7: before dose and 0.5, 1, 1.5, 2, 3, 4, 6, 8 and 12 h after dose. Additional samples were collected on day 2 to day 6 before dose (that is, 24 h from the previous dose) and on days […] (that is, 24, 48, 72, 96, 120, 144, 168, 216 and 264 h after the last dose at day 7).
For both SAD and MAD studies, the PK parameters were calculated using standard non-compartmental methods for those with sufficient plasma concentration data.

[11] = 0.6 mg/day, MAD Day 1, 0.6 mg/day
[12] = 0.6 mg/day, MAD Day 7, 0.6 mg/day

In the case of COc1ccc(CO[C@H]2CC[C@@]3(C)C(=CC[C@H]4[C@@H]5CC[C@H](C(C)=O)[C@@]5(C)CC[C@@H]43)C2)cc1 [AEF0117, 3β-(4-methoxybenzyloxy)pregn-5-en-20-one], the “ARCI 49 sub-scores” value (healthy volunteers; 0.6-6 mg vs placebo) is reported as “No relevant trend”, the “Bond and Lader VAS (alertness, contentedness, calmness)” value (healthy volunteers; 0.6-6 mg vs placebo) is reported as “No relevant differences between groups” and the “POMS 65 derived sub-scores” value (healthy volunteers; 0.6-6 mg vs placebo, except one outlier participant) is reported as “no dose related trend”. The “C-SSRS: number of subjects with suicidal ideation or behavior” value (healthy volunteers; all doses 0.6-6 mg, Day 1 and Day 8) was 0 n (%), the “Number of TEAEs” value (volunteers with CUD [1]; 0.06 mg/d 5 d) was 9 E and the “Number of participants with a TEAE leading to discontinuation” value (volunteers with CUD [1]; 0.06 mg/d 5 d) was 0 n (%). The “Number of participants with an SAE” value (volunteers with CUD [1]; 0.06 mg/d 5 d) was 0 n (%), the “Number of participants with at least one TEAE” value (volunteers with CUD [1]; 0.06 mg/d 5 d) was 6 (42.9) n (%) and the “Participants with TEAE: Mild” value (volunteers with CUD [1]; 0.06 mg/d 5 d) was 6 (42.9) n (%). The “Participants with TEAE: Moderate” value (volunteers with CUD [1]; 0.06 mg/d 5 d) was 0 n (%), the “Participants with TEAE: Not related” value (volunteers with CUD [1]; 0.06 mg/d 5 d) was 2 (14.3) n (%) and the “Participants with TEAE: Related” value (volunteers with CUD [1]; 0.06 mg/d 5 d) was 6 (42.9) n (%). The “Participants with TEAE: Severe” value (volunteers with CUD [1]; 0.06 mg/d 5 d) was 0 n (%), the “TEAEs by SOC: Cardiac disorders” value (volunteers with CUD [1]; 0.06 mg/d 5 d) was 1 (7.1) n (%) and the “TEAEs by SOC: Ear and labyrinth disorders” value (volunteers with CUD [1]; 0.06 mg/d 5 d) was 0 n (%). For the same molecule, the “TEAEs by SOC: Gastrointestinal disorders” value (volunteers with CUD [1]; 0.06 mg/d 5 d) was 0 n (%), the “TEAEs by SOC: General disorders and administration site conditions” value (volunteers with CUD [1]; 0.06 mg/d 5 d) was 1 (7.1) n (%) and the “TEAEs by SOC: Infections and infestations” value (volunteers with CUD [1]; 0.06 mg/d 5 d) was 0 n (%). The “TEAEs by SOC: Injury, poisoning and procedural complications” value (volunteers with CUD [1]; 0.06 mg/d 5 d) was 0 n (%), the “TEAEs by SOC: Investigations” value (volunteers with CUD [1]; 0.06 mg/d 5 d) was 3 (21.4) n (%) and the “TEAEs by SOC: Musculoskeletal and connective tissue disorders” value (volunteers with CUD [1]; 0.06 mg/d 5 d) was 0 n (%). The “TEAEs by SOC: Nervous system disorders” value (volunteers with CUD [1]; 0.06 mg/d 5 d) was 3 (21.4) n (%), the “TEAEs by SOC: Psychiatric disorders” value (volunteers with CUD [1]; 0.06 mg/d 5 d) was 0 n (%) and the “TEAEs by SOC: Renal and urinary disorders” value (volunteers with CUD [1]; 0.06 mg/d 5 d) was 0 n (%). For the same molecule, the “TEAEs by SOC: Respiratory, thoracic and mediastinal disorders” value (volunteers with CUD [1]; 0.06 mg/d 5 d) was 1 (7.1) n (%), the “TEAEs by SOC: Skin and subcutaneous tissue disorders” value (volunteers with CUD [1]; 0.06 mg/d 5 d) was 0 n (%) and the “Number of TEAEs” value (volunteers with CUD [1]; 1 mg/d 5 d) was 24 E. For the same molecule, the “Number of participants with a TEAE leading to discontinuation” value (volunteers with CUD [1]; 1 mg/d 5 d) was 1 (6.7) n (%), the “Number of participants with an SAE” value (volunteers with CUD [1]; 1 mg/d 5 d) was 0 n (%) and the “Number of participants with at least one TEAE” value (volunteers with CUD [1]; 1 mg/d 5 d) was 8 (53.3) n (%). For the same molecule, the “Participants with TEAE: Mild” value (volunteers with CUD [1]; 1 mg/d 5 d) was 8 (53.3) n (%), the “Participants with TEAE: Moderate” value (volunteers with CUD [1]; 1 mg/d 5 d) was 1 (6.7) n (%) and the “Participants with TEAE: Not related” value (volunteers with CUD [1]; 1 mg/d 5 d) was 1 (6.7) n (%). For the same molecule, the “Participants with TEAE: Related” value (volunteers with CUD [1]; 1 mg/d 5 d) was 8 (53.3) n (%), the “Participants with TEAE: Severe” value (volunteers with CUD [1]; 1 mg/d 5 d) was 1 (6.7) n (%) and the “TEAEs by SOC: Cardiac disorders” value (volunteers with CUD [1]; 1 mg/d 5 d) was 0 n (%). For the same molecule, the “TEAEs by SOC: Ear and labyrinth disorders” value (volunteers with CUD [1]; 1 mg/d 5 d) was 0 n (%), the “TEAEs by SOC: Gastrointestinal disorders” value (volunteers with CUD [1]; 1 mg/d 5 d) was 4 (26.7) n (%) and the “TEAEs by SOC: General disorders and administration site conditions” value (volunteers with CUD [1]; 1 mg/d 5 d) was 0 n (%). The “TEAEs by SOC: Infections and infestations” value (volunteers with CUD [1]; 1 mg/d 5 d) was 0 n (%), the “TEAEs by SOC: Injury, poisoning and procedural complications” value (volunteers with CUD [1]; 1 mg/d 5 d) was 2 (13.3) n (%) and the “TEAEs by SOC: Investigations” value (volunteers with CUD [1]; 1 mg/d 5 d) was 2 (13.3) n (%). The “TEAEs by SOC: Musculoskeletal and connective tissue disorders” value (volunteers with CUD [1]; 1 mg/d 5 d) was 2 (13.3) n (%), the “TEAEs by SOC: Nervous system disorders” value (volunteers with CUD [1]; 1 mg/d 5 d) was 3 (20.0) n (%) and the “TEAEs by SOC: Psychiatric disorders” value (volunteers with CUD [1]; 1 mg/d 5 d) was 2 (13.3) n (%). The “TEAEs by SOC: Renal and urinary disorders” value (volunteers with CUD [1]; 1 mg/d 5 d) was 0 n (%), the “TEAEs by SOC: Respiratory, thoracic and mediastinal disorders” value (volunteers with CUD [1]; 1 mg/d 5 d) was 0 n (%) and the “TEAEs by SOC: Skin and subcutaneous tissue disorders” value (volunteers with CUD [1]; 1 mg/d 5 d) was 1 (6.7) n (%). The “plasma THC and its metabolites, AEF0117 vs placebo periods” value (volunteers with CUD [2]) was “no statistically significant differences”, the “adverse effects on behavior (Irwin test) and body temperature” value (rats [3]) was “did not show any adverse effects” and the inhibition at 10 µM [4] was 22%. For the same molecule, the “Overall effect: increase in glucocorticoid secretion” value (mice [5]) was “No”, the “change in thymus weight, absolute value” (rats [6]; female rats, 65 mg/kg/day, Day 122, vs vehicle) was -17% and the “change in blood urea level” value (rats [6]; 20 mg) was “+13%”. The “change in blood urea level” value (rats [6]; 65 mg) was “+10%”, the NOAEL at 91 day ([7]; oral, 91-day, highest dose tested) was 65 mg/kg/day and the NOAEL at 91 d ([7]; 91-d repeated oral) was greater than 65 mg/kg/day. For the same molecule, the THC-induced catalepsy (mice [8]) was “inhibited”, the “% Inhibition” value (mice [8]; Catalepsy) was 50% and the ID50 (mice [8]; Catalepsy) was 0.005 mg/kg. For the same molecule, the ID100 (mice [8]; Catalepsy) was 0.05 mg/kg, the IC50 (endogenous mouse CB1) was 300 nM and the “THC-induced increase in Nac extracellular dopamine” value (rats [9]) was “inhibited”. The “concentration at 264 h as share of Cmax at Day 7” value ([10]; MAD, all doses) was 4%, the Cmax [10, 11] was 4.6 ± 1.4 ng/mL and the Tmax [10, 11] was 3 h. For the same molecule, the half-life ([10]; 0.6 mg/day, MAD Day 7, 0.6 mg/day, 0-264 h, read-out: t½, min-max) was 153 to 252 h, the Cmax [10, 12] was 3.3 ± 0.3 ng/mL and the Tmax [10, 12] was 3 h. The Cmax ([10]; 2 mg/day, MAD Day 1, 2 mg/day) was 11.6 ± 3.7 ng/mL, the Tmax ([10]; 2 mg/day, MAD Day 1, 2 mg/day) was 3 h and the half-life ([10]; 2 mg/day, MAD Day 7, 2 mg/day, 0-264 h, read-out: t½, min-max) was 152 to 240 h. It also gave a Cmax ([10]; 2 mg/day, MAD Day 7, 2 mg/day) of 14.5 ± 4.9 ng/mL, a Tmax ([10]; 2 mg/day, MAD Day 7, 2 mg/day) of 3 h and a Cmax ([10]; 6 mg/day, MAD Day 1, 6 mg/day) of 35.9 ± 13.5 ng/mL. The Tmax ([10]; 6 mg/day, MAD Day 1, 6 mg/day) was 3.5 h, the half-life ([10]; 6 mg/day, MAD Day 7, 6 mg/day, 0-264 h, read-out: t½, min-max) was 160 to 258 h and the Cmax ([10]; 6 mg/day, MAD Day 7, 6 mg/day) was 37.1 ± 7.3 ng/mL. The Tmax ([10]; 6 mg/day, MAD Day 7, 6 mg/day) was 2.5 h and the half-life ([10]; humans, MAD study, range between participants, read-out: terminal half-life) was 152 to 259 h.
